The record followed here is US9073880B2, “2-(2-phenylethenyl) 1,3-benzodiazepine derivatives useful for the treatment of cancer” (Yissum Research Development Company of the Hebrew …, priority 2010, dated 2015).

This assay concerns human NCI-H1975 cells. Description: Cell proliferation, NCI-H1975 (Example 4). It is filed as cell-based. Particulars: NCI-H1975, SCLC, compound in 2-hydroxypropyl-β-cyclodextrin. On the procedure: Human ovary cancer A2780 cells lines were seeded at a density of 5000 cells/well, human melanoma A375 cells were plated at a density of 2,500 cells/well, human colon carcinoma HCT15 cells were plated at a density of 3,000 cells/well, human prostate carcinoma PC3 cells were plated at a density of 1,500 cells/well, human breast carcinoma MCF7 cells were plated at a density of 5,000 cells/well, human breast carcinoma MDA MB 468 cells were plated at a density of 6,000 cells/well, human myeloma U266, RPMI8226 and CAG cells were plated at a density of 10,000 cells/well. All cells were plated in 96-well plates in 90 μl growth medium containing 10% FCS, 100 units/ml penicillin and 100 μg/ml streptomycin. Compound 3 was added a day later in […] of 1% DMSO in DDW to obtain final concentrations of 0, 0.1, 0.3, 1, 3, and 10 μM. The final concentration of DMSO (0.1% DMSO) was kept constant in all samples. Following exposure of the cells to compound 3 for 72 hours at 37° C., adhered cells were fixed in 0.5% gluteraldehyde in medium for 10 min, washed three times with DDW, once with 0.1M sodium borate buffer pH 8.5 and stained with 1% methylene blue dissolved in 0.1M borate buffer solution for 60 min. Excess dye was washed out and cell-bound dye was eluted with 200 μl/well of 0.1M HCl. The optical density values were read at 630 nm in ELISA plate reader. Non-adhered cells were exposed to WST-1 reagent for 5 hours following 72 hours treatment with the inhibitors, and optical density values were read at 630 nm in ELISA plate reader. The data was analyzed in Microsoft Excel, using the vehicle control as 100% proliferation. The assays were performed in triplicates. The values of IC50 were derived from the dose-dependent growth curves obtained.
Cell proliferation assay was performed as described in Example 2. […]

For `O=c1c(O)cc2cnc(/C=C/c3cc(O)c(O)c(Br)c3)sc-2c1O` [Compound 3], the half-maximal inhibitory concentration (IC50) (as a rule, the concentration that gives 50% inhibition) was determined as 1000 nM.
`O=c1c(O)cc2cnc(/C=C/c3ccc(O)c(O)c3Br)sc-2c1O` [Compound 5] yielded an IC50 of 800 nM.
